Experimental data taken from BindingDB's records for doi:10.1016/s0006-2952(97)00631-x (Roche Bioscience, 1998).
Values joined by “and” are separate entries in the source; they are usually repeats but may differ in a detail not shown here. Identical values can stand only once.

Tests used:
[1] = biological target: T1, Alpha-2A adrenergic receptor (Mus musculus, UniProt Q1HL33)
T1 sequence (Q1HL33 whole entry): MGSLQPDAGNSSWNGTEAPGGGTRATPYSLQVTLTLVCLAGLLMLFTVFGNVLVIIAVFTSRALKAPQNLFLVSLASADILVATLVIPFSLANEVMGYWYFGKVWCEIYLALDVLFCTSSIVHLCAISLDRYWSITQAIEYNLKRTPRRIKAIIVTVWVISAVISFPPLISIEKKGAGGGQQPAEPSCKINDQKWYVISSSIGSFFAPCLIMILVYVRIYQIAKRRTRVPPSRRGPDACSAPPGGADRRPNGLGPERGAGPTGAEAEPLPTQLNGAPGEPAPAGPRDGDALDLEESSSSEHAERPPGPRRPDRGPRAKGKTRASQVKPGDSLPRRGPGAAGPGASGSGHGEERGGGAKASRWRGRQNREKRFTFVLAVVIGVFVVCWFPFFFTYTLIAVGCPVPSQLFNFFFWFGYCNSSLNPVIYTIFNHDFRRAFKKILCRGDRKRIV

[2] = biological target: T2, Alpha-2C adrenergic receptor (Homo sapiens, UniProt P18825)
T2 sequence (P18825 whole entry): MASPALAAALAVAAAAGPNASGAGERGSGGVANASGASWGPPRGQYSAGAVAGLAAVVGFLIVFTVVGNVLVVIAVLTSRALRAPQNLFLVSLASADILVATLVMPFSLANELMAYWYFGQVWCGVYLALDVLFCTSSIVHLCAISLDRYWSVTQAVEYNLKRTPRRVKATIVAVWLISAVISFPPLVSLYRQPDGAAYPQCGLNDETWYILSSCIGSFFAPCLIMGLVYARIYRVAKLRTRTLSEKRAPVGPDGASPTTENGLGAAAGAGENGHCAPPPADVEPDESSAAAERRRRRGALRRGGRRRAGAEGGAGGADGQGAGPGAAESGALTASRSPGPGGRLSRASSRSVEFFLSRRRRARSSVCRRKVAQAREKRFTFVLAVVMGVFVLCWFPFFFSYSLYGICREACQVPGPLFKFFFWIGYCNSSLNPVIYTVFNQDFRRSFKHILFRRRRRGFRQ

[3] = biological target: T3, Alpha-2A adrenergic receptor (Homo sapiens, UniProt P08913)
T3 sequence (P08913 whole entry): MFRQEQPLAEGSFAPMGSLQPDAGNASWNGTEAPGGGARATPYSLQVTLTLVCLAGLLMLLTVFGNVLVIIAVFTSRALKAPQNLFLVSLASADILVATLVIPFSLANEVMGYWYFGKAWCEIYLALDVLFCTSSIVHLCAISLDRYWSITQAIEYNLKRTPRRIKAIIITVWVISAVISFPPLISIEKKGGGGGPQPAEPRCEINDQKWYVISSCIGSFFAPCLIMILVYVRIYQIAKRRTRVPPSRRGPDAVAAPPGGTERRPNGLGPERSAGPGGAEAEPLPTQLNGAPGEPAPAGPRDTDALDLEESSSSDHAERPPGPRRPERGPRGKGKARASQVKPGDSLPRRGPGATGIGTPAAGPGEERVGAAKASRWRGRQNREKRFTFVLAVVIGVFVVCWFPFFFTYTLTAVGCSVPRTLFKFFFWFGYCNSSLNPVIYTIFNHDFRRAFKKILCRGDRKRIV

Row | Structure (SMILES) | Ki [1] | Ki [2] [nM] | Ki [3] [nM]
1 | Clc1cccc(Cl)c1N=C1NCCN1 [2-(2,6-dichloroanilino)-2-imidazoline] | 40.7 nM |  | 
2 | CC(N)C(O)c1ccc(O)c(O)c1 (stereo not drawn) [alpha-Methyl-(+/-)norepinephrine,(+/-)] |  | 2880 | 3630
3 | C[C@@H](Oc1c(Cl)cccc1Cl)C1=NCCN1 [CAS_81447-78-1] |  | 174 | 
4 | COC1(C2=NCCN2)COc2ccccc2O1 (centres undefined) [RX821002] | 0.62 nM | 0.79 | 0.36
5 | Cc1cc(C(C)(C)C)cc(C)c1CC1=NCCN1 [SMR000058526] | 25.7 nM and 24 nM | 129 | 15.1
6 | C1COC(NC(C2CC2)C2CC2)=N1 [rilmenidine] | 724 nM | 4680 | 1580
7 | CCc1cccc(CC)c1NC1=NCCN1 [ST 91] | 537 nM | 617 | 575
8 | CN1CCC2(CCN3CCc4c(oc5ccccc45)C3C2)N(C)C1=O (centres undefined) [MK-912] |  | 0.07 | 0.85
9 | Cc1cccc(C)c1N=C1NCCCS1 [(5,6-Dihydro-4H-[1,3]thiazin-2-yl)-(2,6-dimethyl-phenyl)-amine] | 2400 nM | > 10000 | 5750
10 | Fc1cccc(Cl)c1C1CC2=NCCN2C1 (centres undefined) [CAS_67249-51-8] |  | 282 | 7.94
11 | C=CCN1CCc2nc(N)sc2CC1 [B-HT 920] |  | 955 | 398
12 | Nc1cc(Cl)c(N=C2NCCN2)c(Cl)c1 [p-AMINOCLONIDINE] |  | 21.4 | 7.94
13 | CCn1ccnc1CC1COc2ccccc2O1 (centres undefined) [NSC_133621] |  | 151 | 316
14 | Cc1cc(C(C)(C)C)c(O)c(C)c1CC1=NCCN1 [SMR000059324] | 15.5 nM and 25.7 nM |  | 
15 | CC(C)NCC(O)c1ccc(O)c(O)c1 (stereo not drawn) [Isoproterenol,(+)] | > 10000 nM |  | 
16 | NCC(O)c1ccc(O)c(O)c1 (stereo not drawn) [Noradrenaline,(+)] | 1410 nM | 1350 | 
17 | Cc1cccc([C@@H](C)c2cnc[nH]2)c1C | 3.39 nM | 95.5 | 
18 | N=C(N)NC(=O)Cc1c(Cl)cccc1Cl [NSC_3519] | 20.4 nM |  | 
19 | c1ccc2ccccc2c1 [naphtaline] | 7.76 nM and 9.33 nM | 3.31 | 4.57
20 | c1cc2c(c(NC3=NCCN3)c1)CCCC2 | 15.5 nM | 275 | 31.6
21 | C=CCN(C1=NCCN1)c1c(Cl)cccc1Cl [CAS_33178-86-8] |  | > 10000 | 6030
22 | Oc1ccc2c(c1O)CCC[C@@H]2C1=NCCN1 [A-54741] | 9.77 nM | 776 | 
23 | c1ccc2c(CC3=NCCN3)cccc2c1 [Naphazoline] | 11.5 nM and 17 nM | 407 | 20.9
